Test results as given in patent publication US20150119373A1, “NOVEL BETULINIC ACID DERIVATIVES AS HIV INHIBITORS” (HETERO RESEARCH FOUNDATION, priority 2012, published 2015).

Legend:
[1] = Single dose oral pharmacokinetic study in mice; type: in vivo; details: mouse, plasma, Mice oral PK @30 mg/kg (Table 5); for AUC(0-t): read-out: AUC 0-t
Procedure: The test item was administered through oral route to animals (rat/mice) at 30 mg/kg dose in a suitable vehicle at 10 ml/kg dose volume. Blood samples (˜50 uL at each time point) were collected from retro-orbital plexus using K3 EDTA as anticoagulant in eppendorf tubes at defined time intervals under light ether anesthesia. The samples were centrifuged at 3500×g to separate plasma and stored at −80° C. until analysis.
Sample analysis: Test samples were analyzed using LC-MS-MS after developing fit-for-purpose method for each of test compound.

HIV-1 strain 92HT599 = assay: Antiviral activity: p24 estimation in MT2 cells infected with HIV-1 strain 92HT599; type: cell-based; details: Human immunodeficiency virus 1, MT2 cells, HIV-1 92HT599, ~96 hours, p24; for inhibition at 0.1 µM: 100 nM, read-out: Antiviral activity % inhibition 100 nM; for inhibition at 1 µM: 1000 nM, read-out: Antiviral activity % inhibition 1000 nM
Procedure: MT2 cells were infected with HIV-1 strain 92HT599 (10 TCID 50/30000 cells). The infected cells were plated at the concentration of […] cells per well in 96 well plate. Test compound was added to the micro plate in defined format with the final concentration of DMSO (vehicle) is not more than 1%. Incubation was carried out in CO2 incubator for ˜96 hours for viral infection. At the end of incubation period an aliquot from each well was taken for p24 estimation. The quantitation of p24 is an index for antiviral activity of the compound. Percent inhibition was calculated with reference to control values (vehicle controls).
p-24 estimation was carried out using Advance biosciences kit as per the procedure detailed by supplier.

[2] = Cyto-toxicity assay (MTT) in MT2 cells without virus; type: cell-based; details: human
Procedure: For cyto-toxicity assay the same amount of MT2 cells as in antiviral assay without virus was added to the 96 well plates. The cyto-toxicity was measured using MTT reagent in parallel with p24 estimation. The percent viability is calculated in comparison with vehicle control.

## CCN1CCN(C(=O)[C@]23CC[C@@H](C4(C)CC4)[C@@H]2[C@H]2CC[C@@H]4[C@@]5(C)CC[C@H](OC(=O)CC(C)(C)C(=O)O)C(C)(C)[C@@H]5CC[C@@]4(C)[C@]2(C)CC3)CC1 [Example 12, 4-((1R,3aS,5aR,5bR,7aR,9S,11aR,11bR,13aR,13bR)-3a-(4-ethylpiperazine-1-carbonyl)-5a,5b,8,8,11a-pentamethyl-1-(1-methylcyclopropyl)icosahydro-1H-cyclopenta[a]chrysen-9-yloxy)-2,2-dimethyl-4-oxobutanoicacid]
[1]
  Cmax: 8160 ng/mL
  Tmax: 4 h
  AUC(0-t): 201000 ng·h/mL
HIV-1 strain 92HT599
  inhibition at 0.1 µM: 100%
  inhibition at 1 µM: 100%
[2]
  viability at 100 nM: 100%
  viability at 1000 nM: 99%

## CCN1CCN(C(=O)[C@]23CC[C@@H](C4(C)CC4)[C@@H]2[C@H]2CC[C@@H]4[C@@]5(C)CC[C@H](OC(=O)[C@H]6C[C@@H](C(=O)O)C6(C)C)C(C)(C)[C@@H]5CC[C@@]4(C)[C@]2(C)CC3)CC1 [Example 13, (1R,3S)-3-(((1R,3aS,5aR,5bR,7aR,9S,11aR,11bR,13aR,13bR)-3a-(4-ethylpiperazine-1-carbonyl)-5a,5b,8,8,11a-pentamethyl-1-(1-methylcyclopropyl)icosahydro-1H-cyclopenta[a]chrysen-9-yloxy)carbonyl)-2,2-dimethylcyclobutanecarboxylic acid]
[1]
  Cmax: 12000 ng/mL
  Tmax: 20 h
  AUC(0-t): 456000 ng·h/mL
HIV-1 strain 92HT599
  inhibition at 0.1 µM: 83%
  inhibition at 1 µM: 99%
[2]
  viability at 100 nM: 86%
  viability at 1000 nM: 79%

## CC(C)(CC(=O)O[C@H]1CC[C@]2(C)[C@H]3CC[C@@H]4[C@H]5[C@H]([C@]6(C)CO6)CC[C@]5(C(=O)N[C@@H]5C[C@H](C(=O)N6CCCCC6)C5(C)C)CC[C@@]4(C)[C@]3(C)CC[C@H]2C1(C)C)C(=O)O [Example 14, 4-((1R,3aS,5aR,5bR,7aR,9S,11aR,11bR,13aR,13bS)-3a-((1R,3S)-2,2-dimethyl-3-(piperidine-1-carbonyl)cyclobutylcarbamoyl)-5a,5b,8,8,11a-pentamethyl-1-(2-methyloxiran-2-yl)icosa hydro-1H-cyclopenta[a]chrysen-9-yloxy)-2,2-dimethyl-4-oxobutanoicacid]
[1]
  Cmax: 4450 ng/mL
  Tmax: 0.63 h
  AUC(0-t): 15200 ng·h/mL
HIV-1 strain 92HT599
  inhibition at 0.1 µM: 100%
  inhibition at 1 µM: 100%
[2]
  viability at 100 nM: 86%
  viability at 1000 nM: 88%

## CC(C)(CC(=O)O[C@H]1CC[C@]2(C)[C@H]3CC[C@@H]4[C@H]5[C@H]([C@@](C)(O)CO)CC[C@]5(C(=O)N[C@@H]5C[C@H](C(=O)N6CCCCC6)C5(C)C)CC[C@@]4(C)[C@]3(C)CC[C@H]2C1(C)C)C(=O)O [Example 15, 4-((1R,3aS,5aR,5bR,7aR,9S,11aR,11bR,13aR,13bS)-1-(1,2-dihydroxypropan-2-yl)-3a-((1R,3S)-2,2-dimethyl-3-(piperidine-1-carbonyl)cyclobutylcarbamoyl)-5a,5b,8,8,11a-pentamethylicosahydro-1H-cyclopenta[a]chrysen-9-yloxy)-2,2-dimethyl-4-oxobutanoicacid]
[1]
  Cmax: 3780 ng/mL
  Tmax: 0.63 h
  AUC(0-t): 31400 ng·h/mL
HIV-1 strain 92HT599
  inhibition at 0.1 µM: 93%
  inhibition at 1 µM: 97%
[2]
  viability at 100 nM: 95%
  viability at 1000 nM: 95%

## Cc1nnc([C@H]2C[C@@H](NC(=O)[C@]34CC[C@@H](C5(C)CC5)[C@@H]3[C@H]3CC[C@@H]5[C@@]6(C)CC[C@H](OC(=O)[C@H]7C[C@@H](C(=O)O)C7(C)C)C(C)(C)[C@@H]6CC[C@@]5(C)[C@]3(C)CC4)C2(C)C)o1 [Example 17, (1R,3S)-3-(((1R,3aS,5aR,5bR,7aR,9S,11aR,11bR,13aR,13bR)-3a-((1R,3S)-2,2-dimethyl-3-(5-methyl-1,3,4-oxadiazol-2-yl)cyclobutylcarbamoyl)-5a,5b,8,8,11a-pentamethyl-1-(1-methylcyclopropyl)icosahydro-1H-cyclopenta[a]chrysen-9-yloxy)carbonyl)-2,2-dimethyl cyclobutanecarboxylicacid]
[1]
  Cmax: 5940 ng/mL
  Tmax: 4.5 h
  AUC(0-t): 88300 ng·h/mL
HIV-1 strain 92HT599
  inhibition at 0.1 µM: 100%
  inhibition at 1 µM: 100%
[2]
  viability at 100 nM: 77%
  viability at 1000 nM: 89%

## COCCOCCOC1CCN(C(=O)[C@]23CC[C@@H](C4(C)CC4)[C@@H]2[C@H]2CC[C@@H]4[C@@]5(C)CC[C@H](OC(=O)[C@H]6C[C@@H](C(=O)O)C6(C)C)C(C)(C)[C@@H]5CC[C@@]4(C)[C@]2(C)CC3)CC1 [Example 44, (1R,3S)-3-((((1R,3aS,5aR,5bR,7aR,9S,11aR,11bR,13aR,13bR)-3a-(4-(2-(2-methoxyethoxyl)ethoxy)piperidine-1-carbonyl)-5a,5b,8,8,11a-pentamethyl-1-(1-methylcyclopropyl)icosahydro-1H-cyclopenta[a]chrysen-9-yl)oxy)carbonyl)-2,2-dimethylcyclobutane-1-carboxylic acid]
HIV-1 strain 92HT599
  inhibition at 0.1 µM: 97%
  inhibition at 1 µM: 100%
[2]
  viability at 100 nM: 93%
  viability at 1000 nM: 86%

## CCN1CCN(C2CCN(C(=O)[C@]34CC[C@@H](C5(C)CC5)[C@@H]3[C@H]3CC[C@@H]5[C@@]6(C)CC[C@H](OC(=O)[C@H]7C[C@@H](C(=O)O)C7(C)C)C(C)(C)[C@@H]6CC[C@@]5(C)[C@]3(C)CC4)CC2)CC1 [Example 46, (1R,3S)-3-((((1R,3aS,5aR,5bR,7aR,9S,11aR,11bR,13aR,13bR)-3a-(4-(4-ethylpiperazin-1-yl)piperidine-1-carbonyl)-5a,5b,8,8,11a-pentamethyl-1-(1-methylcyclopropyl)icosahydro-1H-cyclopenta[a]chrysen-9-yl)oxy)carbonyl)-2,2-dimethylcyclobutane-1-carboxylic acid]
HIV-1 strain 92HT599
  inhibition at 0.1 µM: 100%
  inhibition at 1 µM: 100%
[2]
  viability at 100 nM: 100%
  viability at 1000 nM: 90%

## CC(C)(CC(=O)O[C@H]1CC[C@]2(C)[C@H]3CC[C@@H]4[C@H]5[C@H](C6(C)CC6)CC[C@]5(C(=O)N5CCC(OCCN6CCOCC6)CC5)CC[C@@]4(C)[C@]3(C)CC[C@H]2C1(C)C)C(=O)O [Example 47, 2,2-dimethyl-4-oxo-4-(((1R,3aS,5aR,5bR,7aR,9S,11aR,11bR,13aR,13bR)-5a,5b,8,8,11a-pentamethyl-1-(1-methylcyclopropyl)-3a-(4-(2-morpholinoethoxyl)piperidine-1-carbonyl)icosahydro-1H-cyclopenta[a]chrysen-9-yl)oxy)butanoic acid]
HIV-1 strain 92HT599
  inhibition at 0.1 µM: 100%
  inhibition at 1 µM: 99%
[2]
  viability at 100 nM: 100%
  viability at 1000 nM: 96%

## CC1([C@@H]2CC[C@]3(C(=O)N4CCC(OCCN5CCOCC5)CC4)CC[C@]4(C)[C@H](CC[C@@H]5[C@@]6(C)CC[C@H](OC(=O)[C@H]7C[C@@H](C(=O)O)C7(C)C)C(C)(C)[C@@H]6CC[C@]54C)[C@@H]23)CC1 [Example 48, (1R,3S)-2,2-dimethyl-3-((((1R,3aS,5aR,5bR,7aR,9S,11aR,11bR,13aR,13bR)-5a,5b,8,8,11a-pentamethyl-1-(1-methylcyclopropyl)-3a-(4-(2-morpholinoethoxyl)piperidine-1-carbonyl)icosahydro-1H-cyclopenta[a]chrysen-9-yl)oxy)carbonyl)cyclobutane-1-carboxylic acid]
HIV-1 strain 92HT599
  inhibition at 0.1 µM: 97%
  inhibition at 1 µM: 99%
[2]
  viability at 100 nM: 100%
  viability at 1000 nM: 100%

## CC(C)(CC(=O)O[C@H]1CC[C@]2(C)[C@H]3CC[C@@H]4C5[C@H](C6(C)CC6)CC[C@]5(C(=O)N[C@H]5C[C@@H](C(=O)N6CCOCC6)C5(C)C)CC[C@@]4(C)[C@]3(C)CC[C@H]2C1(C)C)C(=O)O (stereo partly drawn) [Example 51, 4-(((1R,3aS,5aR,5bR,7aR,9S,11aR,11bR,13aR)-3a-(((1S,3R)-2,2-dimethyl-3-(morpholine-4-carbonyl)cyclobutyl)carbamoyl)-5a,5b,8,8,11a-pentamethyl-1-(1-methylcyclopropyl)icosahydro-1H-cyclopenta[a]chrysen-9-yl)oxy)-2,2-dimethyl-4-oxobutanoic acid]
HIV-1 strain 92HT599
  inhibition at 0.1 µM: 100%
  inhibition at 1 µM: 100%
[2]
  viability at 100 nM: 85%
  viability at 1000 nM: 83%

## CC(C)(CC(=O)O)CC(=O)O[C@H]1CC[C@]2(C)[C@H]3CC[C@@H]4C5[C@H](C6(C)CC6)CC[C@]5(C(=O)N[C@H]5C[C@@H](C(=O)N6CCOCC6)C5(C)C)CC[C@@]4(C)[C@]3(C)CC[C@H]2C1(C)C (stereo partly drawn) [Example 52, 5-(((1R,3aS,5aR,5bR,7aR,9S,11aR,11bR,13aR)-3a-(((1S,3R)-2,2-dimethyl-3-(morpholine-4-carbonyl)cyclobutyl)carbamoyl)-5a,5b,8,8,11a-pentamethyl-1-(1-methylcyclopropyl)icosahydro-1H-cyclopenta[a]chrysen-9-yl)oxy)-3,3-dimethyl-5-oxopentanoic acid]
HIV-1 strain 92HT599
  inhibition at 0.1 µM: 100%
  inhibition at 1 µM: 100%
[2]
  viability at 100 nM: 95%
  viability at 1000 nM: 85%
